Test results: patent US11925612B2, “Bactericidal and virucidal pharmaceutical composition” (Quimica Luar SRL, priority 2015, dated 2024)

Legend:
P. aeruginosa = assay: Bactericidal test: CFU count after incubation in PBS buffer; assay type: cell-based, Pseudomonas aeruginosa; conditions: for Colony count (UFC/mL ± 10) Pseudomonas: Example 9; for P. aeruginosa count (UFC/mL ± 10) As a function of treatment time: 37° C., Example 6; for P. aeruginosa count (UFC/mL ± 10) As a function of treatment time / Colony count (UFC/mL ± 10): control 2,000,000; for Colony count (UFC/mL ± 10) P. aeruginosa: 4-hour at 37° C., control 3,000,000, Example 15; for Colony count (UFC/mL ± 10): 4-hour contact at 37° C., Example 8; for concentration at which the number of CFU/mL decreases to 1000: FIG. 11, Example 12
[1] = test system: artificial biofilm of P. aeruginosa; assay: Antimicrobial effect on artificial biofilm (2% alginate solution); assay type: cell-based, Pseudomonas aeruginosa; conditions: Biofilm (2% alginate) + ionic strength (1 M NaCl), 4 hours at 37° C., control 2,000,000, Example 21
Description: Work consisted of incubating bacterial populations of a known load in terms of CFU/mL with the compounds mentioned in different molar concentrations. In vitro test batteries were organized at different doses or concentrations and in 1.5 mL Eppendorf tubes without the addition of culture medium. To this purpose, a PBS 100 mM phosphate buffer was used to maintain physiological conditions throughout the period of each test at 37° C. […] Each plate was added with 5 uL of a solution of 2,3,5-metabolic dye triphenyltetrazolium of chloride (TTC) 1% to enhance the contrast of colonies. Plates were incubated in inverted position, in a culture stove for 24-48 hours at 37° C. and subsequently the direct count was done, adjusted by dilution factors and seeding to report results in terms of CFU/mL. […] Treatments lasted 4 hours at 37° C.

[2] = test system: Enterococcus faecalis (Gram+); assay: Bactericidal test: CFU count after incubation in PBS buffer; assay type: cell-based; conditions: 4-hour contact at 37° C., control 100,000, Example 8

## CC(C)Cc1ccc(C(C)C(=O)O)cc1.[Na] (stereo not shown) [IBU-Na, SODIUM IBUPROFEN]
P. aeruginosa; IBU-Na 5 mM + ClNa (1M), 1 hour, 37° C. pH 6.5, control 800,000, Example 13
  P. aeruginosa (UFC/mL ± 10): 16,000 UFC/mL
P. aeruginosa; IBU-Na 5 mM + ClNa (1M), 2 hours, 37° C. pH 6.5, control 800,000, Example 13
  P. aeruginosa (UFC/mL ± 10): 13,000 UFC/mL
P. aeruginosa; IBU-Na 5 mM + ClNa (1M), 4 hours, 37° C. pH 6.5, control 800,000, Example 13
  P. aeruginosa (UFC/mL ± 10): 8,500 UFC/mL
P. aeruginosa; IBU-Na 5 mM, 4 hours at 37° C., control 1,700,000
  Colony count (UFC/mL ± 10) Pseudomonas: 1,700,000 UFC/mL
P. aeruginosa; IBU-Na 5 mM, Population A (control 200,000), 4 h at 37° C., Example 5
  P. aeruginosa (UFC/mL ± 10): 150,000 UFC/mL
P. aeruginosa; IBU-Na 5 mM, Population B (control 20,000), 4 h at 37° C., Example 5
  P. aeruginosa (UFC/mL ± 10): 17,000 UFC/mL
P. aeruginosa; IBU-Na 10 mM + ClNa (1M), 1 hour, 37° C. pH 6.5, control 800,000, Example 13
  P. aeruginosa (UFC/mL ± 10): 30 UFC/mL
P. aeruginosa; IBU-Na 10 mM + ClNa (1M), 2 hours, 37° C. pH 6.5, control 800,000, Example 13
  P. aeruginosa (UFC/mL ± 10): 30 UFC/mL
P. aeruginosa; IBU-Na 10 mM, 4 hours at 37° C., control 1,700,000
  Colony count (UFC/mL ± 10) Pseudomonas: 760,000 UFC/mL
P. aeruginosa; IBU-Na 10 mM, Overnight (O.N.)
  P. aeruginosa count (UFC/mL ± 10) As a function of treatment time: 900,000 UFC/mL
P. aeruginosa; IBU-Na 10 mM, Population B (control 20,000), 4 h at 37° C., Example 5
  P. aeruginosa (UFC/mL ± 10): 3,500 UFC/mL
P. aeruginosa; IBU-Na 10 mM, Population C (control 2,000), 4 h at 37° C., Example 5
  P. aeruginosa (UFC/mL ± 10): 800 UFC/mL
P. aeruginosa; IBU-Na 10 mM, Without ionic strength, 4 hours at 37° C., control 1,700,000, Example 12
  P. aeruginosa (UFC/mL ± 10): 760,000 UFC/mL
P. aeruginosa; IBU-Na 12.5 mM + ClNa (1M)
  Colony count (UFC/mL ± 10) P. aeruginosa: 250 UFC/mL
P. aeruginosa; IBU-Na 20 mM, Population A (control 200,000), 4 h at 37° C., Example 5
  P. aeruginosa (UFC/mL ± 10): 20,000 UFC/mL
P. aeruginosa; IBU-Na 20 mM, Population B (control 20,000), 4 h at 37° C., Example 5
  P. aeruginosa (UFC/mL ± 10): 400 UFC/mL
P. aeruginosa; IBU-Na 20 mM, Population C (control 2,000), 4 h at 37° C., Example 5
  P. aeruginosa (UFC/mL ± 10): 50 UFC/mL
P. aeruginosa; IBU-Na 25 mM + ClNa (1M)
  Colony count (UFC/mL ± 10) P. aeruginosa: 10 UFC/mL
P. aeruginosa; IBU-Na 25 mM, 1 hour
  P. aeruginosa count (UFC/mL ± 10) As a function of treatment time: 500,000 UFC/mL
P. aeruginosa; IBU-Na 25 mM, 4 hours at 37° C., control 1,700,000
  Colony count (UFC/mL ± 10) Pseudomonas: 200,000 UFC/mL
P. aeruginosa; IBU-Na 25 mM, 4 hours
  P. aeruginosa count (UFC/mL ± 10) As a function of treatment time: 250,000 UFC/mL
P. aeruginosa; IBU-Na 25 mM, Without ionic strength, 4 hours at 37° C., control 1,700,000, Example 12
  P. aeruginosa (UFC/mL ± 10): 200,000 UFC/mL
P. aeruginosa; IBU-Na 30 mM, Population A (control 200,000), 4 h at 37° C., Example 5
  P. aeruginosa (UFC/mL ± 10): 500 UFC/mL
P. aeruginosa; IBU-Na 30 mM, Population B (control 20,000), 4 h at 37° C., Example 5
  P. aeruginosa (UFC/mL ± 10): 40 UFC/mL
P. aeruginosa; IBU-Na 40 mM, Population A (control 200,000), 4 h at 37° C., Example 5
  P. aeruginosa (UFC/mL ± 10): 100 UFC/mL
P. aeruginosa; IBU-Na 50 mM + ClNa (1M)
  Colony count (UFC/mL ± 10) P. aeruginosa: 10 UFC/mL
P. aeruginosa; IBU-Na 50 mM
  Colony count (UFC/mL ± 10): 100 UFC/mL
P. aeruginosa; IBU-Na 50 mM, 4 hours at 37° C., control 1,700,000
  Colony count (UFC/mL ± 10) Pseudomonas: 100 UFC/mL
P. aeruginosa; IBU-Na 50 mM, 4 hours
  P. aeruginosa count (UFC/mL ± 10) As a function of treatment time: 30 UFC/mL
P. aeruginosa; IBU-Na 50 mM, Without ionic strength, 4 hours at 37° C., control 1,700,000, Example 12
  P. aeruginosa (UFC/mL ± 10): 100 UFC/mL
P. aeruginosa; IBU-Na 50 mM, pH 7.8, 4 h at 37°, control 200,000, Example 7
  P. aeruginosa (UFC/mL ± 10): 600 UFC/mL
P. aeruginosa; IBU-Na 100 mM
  Colony count (UFC/mL ± 10): 10 UFC/mL
P. aeruginosa; IBU-Na 100 mM, 1 hour
  P. aeruginosa count (UFC/mL ± 10) As a function of treatment time: 2,000 UFC/mL
P. aeruginosa; IBU-Na 100 mM, 4 hours at 37° C., control 1,700,000
  Colony count (UFC/mL ± 10) Pseudomonas: 10 UFC/mL
P. aeruginosa; with ionic strength of NaCl 1 M, 4 hours at 37° C.
  concentration at which the number of CFU/mL decreases to 1000: about 5 mM
P. aeruginosa; without ionic strength, 4 hours at 37° C.
  concentration at which the number of CFU/mL decreases to 1000: 25 mM
[1]; 10 mM
  P. aeruginosa (UFC/mL ± 10): 25,000 UFC/mL
[1]; 25 mM
  P. aeruginosa (UFC/mL ± 10): 200 UFC/mL
[2]; IBU-Na 50 mM
  Colony count (UFC/mL ± 10): 180 UFC/mL
[2]; IBU-Na 100 mM
  Colony count (UFC/mL ± 10): 10 UFC/mL
